# Laboratory results: patent US20120171201A1
# Assays:
# [1] = Solubility in aqueous saline solution
# [2] = Pharmacokinetics in tumor free Balb/C mice; format: in vivo; conditions: Released from Compound 9; single injection 20 mg/kg Compound 9, Balb/C mice, plasma
# Source text: Pharmacokinetic analysis was done using non-compartmental analysis (WinNonlin).
compound,measurement,setting,value
CCc1c2c(nc3ccc(O)cc13)-c1cc3c(c(=O)n1C2)COC(=O)[C@]3(O)CC,Solubility in Saline,[1],^a7-ethyl-10-hydroxycamptothecin is not soluble in saline.
same,Terminal t 1/2,[2],14.2 h
